What was measured:
[1] = tested on: fasting glycemia (blood-glucose concentration); assay: threshold dose of blood-sugar-lowering activity in fasting guinea pigs; format: in vivo; settings: Cavia porcellus, ip; guinea pig, i.p., potassium salt, pH 7.4; significant lowering of fasting glycemia (p<0.05), N=4 per dose group
Experimental: (§1) To establish the pharmacological properties of the compounds in accordance with the invention, blood-sugar-lowering activity and resorption inhibition were determined in separate tests and compared with two structurally related compounds.
Fasting guinea pigs were used as experimental model to determine the threshold dose of the blood-lowering activity of the substances to be investigated. Food was withheld from the individual animals used in the investigation for 16 hours prior to the start of the tests. The animals were kept unfed throughout the testing period but had free access to drinking water.
The substances were administered through intraperitoneal injection of a solution of the potassium salt at pH 7.4.
A control group carried along in parallel was given an 0.9% NaCl solution.
The drawing of blood for determination of the glucose concentrations was effected immediately prior to administration of the substances and at one-hour intervals up to the fourth hour after the administration of the substances. To this end, an ear vein was carefully punctured with a No. 18 cannula, and the drops of blood issuing were picked up with a 10 μl capillary.
The blood-glucose concentration was determined in the hemolysate by the specific hexokinase method. To this end, the 10 μl blood sample was pipetted into a stabilizer solution containing digitonin as hemolysis accelerator and maleinimide as glycolysis inhibitor. Following this, an aliquot was taken from the hemolysate so obtained and determined by the hexokinase method on an LKB 8600 (made by LKB, Bromma, Sweden).
The dose which with the specified number of test animals per dose group (N=4) was just large enough to produce a significant lowering of fasting glycemia (p<0.05) was adopted as threshold dose.

glucose resorption = assay: resorption-inhibiting activity (oral glucose loading) in fasting guinea pigs; format: in vivo; settings: Cavia porcellus, PIG1, ip, guinea pig, 1 g glucose p.o., AUC difference vs control; for inhibition in vivo at 20 mg/kg: dose 20 mg/kg i.p.; for inhibition in vivo at 40 mg/kg: dose 40 mg/kg i.p.; for inhibition in vivo at 10 mg/kg: dose 10 mg/kg i.p.
Experimental: as §1
To determine the effect on glucose resorption, oral glucose loading was effected. To this end, the substance to be tested was administered intraperitoneally as potassium salt, as described, to a group of ten fasting guinea pigs. At the same time, 1 g glucose was orally administered to the animals as a 20% solution by means of an esophageal bougie.
After a preliminary value has been established, up to […] blood was taken from the animals at close (20-minute) intervals for determination of the glucose concentrations, as described.
A control group carried along in parallel also was given 1 g glucose p.o., and intraperitoneally a corresponding amount of 0.9% NaCl solution.
The blood-glucose concentration was determined in the hemolysate by the hexokinase method, as described.
With regard to glucose resorption, the area under the concentration/time curve, calculated by means of the empirical trapeze formula, served as quantity to be measured. The difference in the area between the control and test groups, expressed in percent, was used as a measure for the inhibition of glucose resorption.

| Compound | minimal effective dose [1] [mg/kg] | inhibition in vivo at 15 mg/kg (glucose resorption; dose 15 mg/kg i.p.) [%] | inhibition in vivo at 20 mg/kg (glucose resorption) [%] | inhibition in vivo at 40 mg/kg (glucose resorption) [%] | inhibition in vivo at 10 mg/kg (glucose resorption) [%] |
| --- | --- | --- | --- | --- | --- |
| CC(=NNCCC1CCCCC1)C(=O)O [B, 2-(2-cyclohexylethylhydrazono)-propionic acid, reference compound] | 15 | 0 |  |  |  |
| COCCCCCCNN=C(C)C(=O)O [Example 3a, 2-(6-methoxyhexylhydrazono)-propionic acid] | 20 |  | 11 |  |  |
| COCCOCCNN=C(C)C(=O)[O-].[Na+] [Example 2a, sodium 2-[2-(2-methoxyethoxy)-ethylhydrazono]-propionate] | > 50 |  |  | 37 |  |
| CC(=NNCCOc1ccc(C)cc1)C(=O)O [Example 1, 2-(2-p-Tolyloxyethylhydrazono)-propionic acid] | 25 |  |  | 25 |  |
| CC(=NNCCSc1ccccc1)C(=O)[O-].[Na+] [Example 2d, sodium 2-(2-phenylthioethylhydrazono)-propionate] | 25 to 50 |  |  | 33 |  |
| CC(=NNCCCOCc1ccccc1)C(=O)O [Example 3e, 2-(3-benzyloxypropylhydrazono)-propionic acid] | > 50 |  |  | 44 |  |
| CC(=NNCCOCc1ccccc1)C(=O)[O-].[Na+] [Example 2b, sodium 2-(2-benzyloxyethylhydrazono)-propionate] | > 50 |  |  | 49.9 |  |
| CCOCCCCCNN=C(C)C(=O)O [Example 3b, 2-(5-ethoxypentylhydrazono)-propionic acid] | 20 to 25 |  | 34 |  |  |
| CC(=NNCCc1ccccc1)C(=O)O [A, 2-(phenethylhydrazono)-propionic acid, reference compound] | 10 to 15 |  |  |  | 0 |
| CC(=NNCCOc1ccccc1)C(=O)O [Example 1b, 2-(2-phenoxyethylhydrazono)-propionic acid] | 25 |  |  | 98 |  |
| CC(=NNCCOCCC1CCCCC1)C(=O)O [Example 3d, 2-[2-(2-cyclohexylethoxy)-ethylhydrazono]-propionic acid] | > 50 |  |  | 15 |  |
| C=CCSCCNN=C(C)C(=O)[O-].[Na+] [Example 2c, sodium 2-(2-allylthioethylhydrazono)-propionate] | 10 to 25 |  |  |  | 16 |
| C=CCOCCNN=C(C)C(=O)O [Example 3, 2-(2-Allyloxyethylhydrazono)-propionic acid] | 25 |  | 9 |  |  |
| COCCSCCNN=C(C)C(=O)O [Example 3f, 2-[2-(2-methoxyethylthio)-ethylhydrazono]-propionic acid] | 25 |  | 17.3 |  |  |

From patent US4387104A, “N-Substituted pyruvic acid hydrazones, preparation thereof and pharmaceutical compositions containing them” (Boehringer Mannheim GmbH, priority 1980, dated 1983)
